From US20230250066A1, “HERBICIDAL CINNOLINE DERIVATIVES” (SYNGENTA CROP PROTECTION AG, priority 2020, published 2023) come the findings set out here.

Structures are written as SMILES.

Assay type in all cases: in vivo
The subject of test [1] is Ipomoea hederacea (IPOHE). Briefly: Pre-emergence herbicidal test. The following applies: 1000 g/ha, evaluated after 13 days.
The subject of test [2] is Setaria faberi (SETFA). Briefly: Post-emergence herbicidal test. The following applies: 1000 g/ha unless otherwise stated, evaluated after 13 days. In outline: (§1)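 Spray treatment, 1000 g/ha unless noted; vehicle acetone/water (50:50), 0.5% Tween 20. Glasshouse 24/16° C., 14 h light, 65% humidity. Percent injury rated at 13 d, banded 0–5.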
Test [3] has as its system Ipomoea hederacea (IPOHE). Briefly: Post-emergence herbicidal test. The following applies: 1000 g/ha unless otherwise stated, evaluated after 13 days. In outline: as §1
Test [4] has as its system Echinochloa crus-galli (ECHCG). Briefly: Post-emergence herbicidal test. Conditions: 1000 g/ha unless otherwise stated, evaluated after 13 days. In outline: as §1
The subject of test [5] is Abutilon theophrasti (ABUTH). Description: Post-emergence herbicidal test. Conditions: 1000 g/ha unless otherwise stated, evaluated after 13 days. An outline of the steps:
as §1

Test [6] concerns Amaranthus retoflexus (AMARE). Briefly: Post-emergence herbicidal test. The following applies: 1000 g/ha unless otherwise stated, evaluated after 13 days. An outline of the steps:
as §1

The test system of test [7] is Zea mays (ZEAMX). Briefly: Post-emergence herbicidal test. The following applies: 1000 g/ha unless otherwise stated, evaluated after 13 days. An outline of the steps:
as §1

The test system of test [8] is Abutilon theophrasti (ABUTH). Briefly: Pre-emergence herbicidal test. The following applies: 1000 g/ha, evaluated after 13 days.
The test system of test [9] is Echinochloa crus-galli (ECHCG). Briefly: Pre-emergence herbicidal test. Conditions: 1000 g/ha, evaluated after 13 days.
The subject of test [10] is Zea mays (ZEAMX). Description: Pre-emergence herbicidal test. The following applies: 1000 g/ha, evaluated after 13 days.
For test [11], the system named is Amaranthus retoflexus (AMARE). Description: Pre-emergence herbicidal test. Conditions: 1000 g/ha, evaluated after 13 days.
Test [12] deals with Setaria faberi (SETFA). Briefly: Pre-emergence herbicidal test. The following applies: 1000 g/ha, evaluated after 13 days.

As to `CC(C)CCOC(=O)c1nn(-c2ccc(OC(F)(F)F)cc2)c2cccc(S(C)(=O)=O)c2c1=O` [Compound P88, isopentyl 5-methylsulfonyl-4-oxo-1-[4-(trifluoromethoxy)phenyl]cinnoline-3-carboxylate], the “percentage damage caused to the plant, five-point scale, IPOHE” value in test [1] is 0 (0=0%). Besides, the “percentage damage caused to the plant, SETFA (five-point scale)” value in test [2] is reported as 4 (4=61-80%). Moreover, the “percentage damage caused to the plant, IPOHE (five-point scale)” value in test [3] is listed as 0 (0=0%). The “percentage damage caused to the plant, ECHCG (five-point scale)” value in test [4] was 3 (3=41-60%). For the same molecule, the “percentage damage caused to the plant, ABUTH (five-point scale)” value in test [5] was 1 (1=10-20%). In test [6], the “percentage damage caused to the plant, AMARE (five-point scale)” value is given as 0 (0=0%). In [7], the “percentage damage caused to the plant, ZEAMX (five-point scale)” value is 0 (0=0%). In addition, in test [8], the “percentage damage caused to the plant, five-point scale, ABUTH” value is 0 (0=0%). In addition, the “percentage damage caused to the plant, five-point scale, ECHCG” value in [9] was 4 (4=61-80%). The “percentage damage caused to the plant, five-point scale, ZEAMX” value in [10] is given as 0 (0=0%). Besides, in test [11], the “percentage damage caused to the plant, five-point scale, AMARE” value was 0 (0=0%). Moreover, the “percentage damage caused to the plant, five-point scale, SETFA” value in test [12] is 5 (5=81-100%).
Turning to `C=C(Cl)COC(=O)c1nn(-c2ccc(OC(F)(F)F)cc2)c2cccc(S(C)(=O)=O)c2c1=O` [Compound P66, 2-chloroallyl 5-methylsulfonyl-4-oxo-1-[4-(trifluoromethoxy)phenyl]cinnoline-3-carboxylate], the “percentage damage caused to the plant, five-point scale, IPOHE” value in test [1] is 1 (1=10-20%). The “percentage damage caused to the plant, SETFA (five-point scale)” value in [2] is recorded as 4 (4=61-80%). For the same molecule, the “percentage damage caused to the plant, IPOHE (five-point scale)” value in [3] is recorded as 0 (0=0%). The “percentage damage caused to the plant, ECHCG (five-point scale)” value in test [4] is 4 (4=61-80%). Further, the “percentage damage caused to the plant, ABUTH (five-point scale)” value in test [5] was 1 (1=10-20%). The “percentage damage caused to the plant, AMARE (five-point scale)” value in [6] is recorded as 0 (0=0%). For the same molecule, the “percentage damage caused to the plant, ZEAMX (five-point scale)” value in test [7] is 1 (1=10-20%). Further, the “percentage damage caused to the plant, five-point scale, ABUTH” value in test [8] was 0 (0=0%). The “percentage damage caused to the plant, five-point scale, ECHCG” value in [9] is recorded as 4 (4=61-80%). Also, the “percentage damage caused to the plant, five-point scale, ZEAMX” value in test [10] is reported as 1 (1=10-20%). For the same molecule, the “percentage damage caused to the plant, five-point scale, AMARE” value in test [11] is listed as 0 (0=0%). The “percentage damage caused to the plant, five-point scale, SETFA” value in test [12] is 5 (5=81-100%).
`CCSc1cccc2c1c(=O)c(C(=O)O)nn2-c1ccc(OC(F)(F)F)cc1` [Compound P26, 5-ethylsulfanyl-4-oxo-1-[4-(trifluoromethoxy)phenyl]cinnoline-3-carboxylic acid]: the “percentage damage caused to the plant, five-point scale, IPOHE” value in test [1] was 0 (0=0%). The “percentage damage caused to the plant, SETFA (five-point scale)” value in [2] is reported as 1 (1=10-20%). In test [3], the “percentage damage caused to the plant, IPOHE (five-point scale)” value is reported as 0 (0=0%). In [4], the “percentage damage caused to the plant, ECHCG (five-point scale)” value was 1 (1=10-20%). For the same molecule, the “percentage damage caused to the plant, ABUTH (five-point scale)” value in test [5] was 1 (1=10-20%). In test [6], the “percentage damage caused to the plant, AMARE (five-point scale)” value is reported as 0 (0=0%). Besides, in test [7], the “percentage damage caused to the plant, ZEAMX (five-point scale)” value is reported as 1 (1=10-20%). Moreover, the “percentage damage caused to the plant, five-point scale, ABUTH” value in [8] was 0 (0=0%). For the same molecule, the “percentage damage caused to the plant, five-point scale, ECHCG” value in [9] was 0 (0=0%). Moreover, the “percentage damage caused to the plant, five-point scale, ZEAMX” value in test [10] is listed as 0 (0=0%). For the same molecule, the “percentage damage caused to the plant, five-point scale, AMARE” value in [11] is reported as 1 (1=10-20%). Moreover, in test [12], the “percentage damage caused to the plant, five-point scale, SETFA” value is on record as 0 (0=0%).
